Source: article PMC9669019, “Molecular basis for integrin adhesion receptor binding to p21-activated kinase 4 (PAK4)” (Communications Biology, 2022)
Ends that are not written are not given here.

Experiments:
[1] = system: GFP-PAK4-Δcat; assay: GST-integrin β5 fusion pull-down of GFP-PAK4-Δcat expressed in cells; format: binding, human; conditions: Figure 1C source data
Protocol: (§1) For pulldowns from cell lysates, human PAK4 constructs were generated in pEGFP (Takara Bio Inc.) by PCR amplification from a pLX304 PAK4 isoform 1 (Uniprot O96013-1) construct kindly provided by Michael Calderwood (Dana-Farber Cancer Institute). Mutations and deletions were introduced by QuikChange mutagenesis or PCR amplification. Chinese hamster ovary (CHO) cells were seeded on 10 cm tissue culture dishes and transiently transfected with GFP-tagged constructs using polyethylenimine (Polysciences). After 24 h, cells were harvested and lysed in buffer X (1 mM NaVO4, 50 mM NaF, 40 mM sodium pyrophosphate, 50 mM NaCl, 150 mM sucrose, 10 mM Pipes, pH 6.8) containing 0.5% Triton X-100, 0.2% deoxycholic acid, and complete EDTA-free protease inhibitor mixture (Roche, Indianapolis, IN, USA) for 15 min at 4 °C. After clarification by centrifugation, lysate was diluted in buffer X-T (buffer X with 0.05% Triton X-100) and incubated with His-tagged integrin tails coupled to Ni-NTA beads for 4 h with rocking at 4 °C. For experiments using purified PAK4cat, protein was incubated with His-tagged integrin tails coupled to Ni-NTA beads in buffer X-T for 2 h with rocking at 4 °C. Beads were then washed three times with buffer X-T, and bound proteins were fractionated by reducing SDS-PAGE and analyzed by immunoblotting with anti-GFP antibodies (600-101-215, Rockland). Immunoblots were imaged on an Odyssey IR imaging system (Li-Cor; Lincoln, NE, USA) and analyzed using Image Studio Lite (Li-Cor; Lincoln, NE, USA). For the quantification of binding from immunoblots, the fluorescence intensity of the band corresponding to bound material was quantified as a fraction of the fluorescence of the input material band for each condition. Loading of integrin tails was assessed by Coomassie Blue staining. Data were analyzed using GraphPad Prism.

[2] = system: GFP-PAK4-cat; assay: GST-integrin β5 fusion pull-down of GFP-PAK4-cat expressed in cells; format: binding, human; conditions: Figure 1C source data
Protocol: as §1

[3] = system: PAK6; assay: In vitro phosphorylation of integrin β5 tail by PAK6; format: biochemical; conditions: in vitro kinase assay, Fig. 5a
[4] = system: PAK4-cat; assay: Pull-down of purified recombinant PAK4-cat by His-tagged integrin tails on Ni-NTA beads; format: binding, human
Protocol: Pull down assays were performed as previously described[45],[60]. Briefly, constructs encoding an N-terminal His-tag followed by a helical region, a 4-glycine spacer, and an integrin cytoplasmic tail sequence were produced in BL21 (DE3) bacteria. Following bacterial cell lysis, recombinant protein was bound to Ni-NTA beads, eluted with imidazole, dialyzed and further purified by reverse-phase high-performance liquid chromatography (HPLC). Purified protein was lyophilized for storage and was used to coat fresh Ni-NTA beads to generate an affinity matrix for pull-down assays.
as §1

[5] = system: PAK4cat; assay: Radioactive kinase assay with MBP as substrate; format: biochemical, human; conditions: in vitro kinase assay, full-length tail 6-50 μM
Protocol: Impact of full-length cytosolic integrin β5 on kinase activity was assessed using a radioactive assay with myelin basic protein (MBP) as substrate. Assays were performed by addition of 0.1 µM of PAK4cat kinase, 2 µM of MBP, cytosolic full-length integrin β5 ^743–799 (50, 25, 12, and 6 μM), with 12 µM of cold ATP and 0.05 µCi of hot [γ33-P] ATP in Tris buffer (20 mM Tris-HCl (pH 8.0), 0.3 M NaCl, 1 mM TCEP, and 10 mM MgCl2) with a total volume of 25 µL. The reaction was conducted at 30 °C for 7–11 min then stopped by the addition of 5× sample buffer and analyzed by SDS-PAGE. Dried gels were analyzed by exposure to phosphor storage screen (GE Healthcare) followed by scanning using a Molecular Imager FX Pro Plus System (Bio-Rad) and quantified by optical densitometry Quantity One (Bio-Rad). Measurements were calculated from three independent experiments. Significant differences were calculated by Prism 7 (GraphPad Software) with ANOVA analysis. Impact of short integrin β5 peptide on kinase activity was assessed using a radioactive assay with a LIM kinase peptide (RKKRYTVVGN, LIMtide) as substrate. The concentration of PAK4 and LIMtide were kept constant at 0.2 and 50 µM, respectively. […] Duplicate measurements were calculated from three independent experiments. […]

[6] = molecular target: T1, PAK4 (Homo sapiens, UniProt O96013); assay: In vitro phosphorylation of integrin β5 tail by PAK4; format: biochemical; conditions: in vitro kinase assay, Fig. 5a
T1 construct: catalytic domain of PAK4 (UniProt ID:O96013) was sub-cloned into a modified pET28a vector; 6xHis (TEV-cleavable) (N); made in house; host or cells: E. coli BL21-CodonPlus(DE3)RILP
T1 sequence (O96013 321-572 limits assumed): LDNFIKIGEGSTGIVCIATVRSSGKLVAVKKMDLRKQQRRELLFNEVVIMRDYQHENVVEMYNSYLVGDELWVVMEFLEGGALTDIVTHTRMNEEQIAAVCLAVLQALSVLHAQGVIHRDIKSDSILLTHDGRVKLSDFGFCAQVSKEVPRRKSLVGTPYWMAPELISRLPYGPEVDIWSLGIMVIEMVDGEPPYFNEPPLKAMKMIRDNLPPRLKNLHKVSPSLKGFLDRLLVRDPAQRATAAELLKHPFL

Substance: B5 746-758: GST-fusion truncation of integrin β5 tail ending at residue 758 (VTIHDRREFAKFQ; also: GST fusion, end not given here; UniProt P18084 746-758, looked up, fragment)
- PAK4 Nterm bound (pull-down quantification) ([1]; replicate 3): 0
- PAK4 Nterm bound (pull-down quantification) ([1]; replicate 4): 0.03887
- PAK4 Nterm bound (pull-down quantification) ([1]; replicate 5): 0.08311
- PAK4 Nterm bound (pull-down quantification) ([1]; replicate 6): 0
- PAK4 Nterm bound (pull-down quantification) ([1]; replicate 7): 0
- PAK4 Cat bound (pull-down quantification) ([2]; bound band as fraction of input, replicate column 1 of 7): 0.2198
- PAK4 Cat bound (pull-down quantification) ([2]; replicate column 6 of 7): 0.1642
- PAK4 Cat bound (pull-down quantification) ([2]; replicate column 7 of 7): 0.1513

Substance: integrin β5 cytoplasmic tail: Recombinant His-tagged integrin β5 cytoplasmic tail, residues 743–799 (KLLVTIHDRREFAKFQSERSRARYEMASNPLYRKPISTHTVDFTFNKFNKSYNGTVD; also: 6xHis tag)
- Phosphorylation of integrin β5 by PAK6 [3]: does not display strong phosphorylation
- PAK4Cat bound to tail (pull-down quantification) ([4]; 5 nM PAK4Cat, replicate 2): 4.211
- PAK4Cat bound to tail (pull-down quantification) ([4]; 50 nM PAK4Cat, replicate 1): 47.6856
- PAK4Cat bound to tail (pull-down quantification) ([4]; 50 nM PAK4Cat, replicate 2): 66.5041
- PAK4Cat bound to tail (pull-down quantification) ([4]; 100 nM PAK4Cat, replicate 1): 90.1913
- PAK4Cat bound to tail (pull-down quantification) ([4]; 100 nM PAK4Cat, replicate 2): 166.368
- PAK4Cat bound to tail (pull-down quantification) ([4]; 200 nM PAK4Cat, replicate 1): 112.727
- PAK4Cat bound to tail (pull-down quantification) ([4]; 200 nM PAK4Cat, replicate 2): 69.6949
- PAK4Cat bound to tail (pull-down quantification) ([4]; 500 nM PAK4Cat, replicate 1): 260.384
- PAK4Cat bound to tail (pull-down quantification) ([4]; 500 nM PAK4Cat, replicate 2): 185.982
- PAK4Cat bound to tail (pull-down quantification) ([4]; 750 nM PAK4Cat, replicate 2): 239.04
- PAK4Cat bound to tail (pull-down quantification) ([4]; 1000 nM PAK4Cat, replicate 1): 443.221
- PAK4Cat bound to tail (pull-down quantification) ([4]; 1000 nM PAK4Cat, replicate 2): 367.326
- PAK4Cat bound to tail (pull-down quantification) ([4]; 2000 nM PAK4Cat, replicate 2): 619.089
- PAK4Cat bound to tail (pull-down quantification) ([4]; 2000 nM PAK4Cat, replicate 3): 750
- PAK4Cat bound to tail (pull-down quantification) ([4]; 3000 nM PAK4Cat, replicate 1): 966.407
- PAK4Cat bound to tail (pull-down quantification) ([4]; 3000 nM PAK4Cat, replicate 2): 705.982
- PAK4Cat bound to tail (pull-down quantification) ([4]; 4000 nM PAK4Cat, replicate 2): 871.714
- PAK4Cat bound to tail (pull-down quantification) ([4]; 5000 nM PAK4Cat, replicate 3): 875
- PAK4Cat bound to tail (pull-down quantification) ([4]; Figure 1D source data, 5 nM PAK4Cat, replicate 1): 9.128
- Effect on PAK4 catalytic activity [5]: suppression of catalytic activity
- Kinase activity of PAK4 towards the integrin β5 tail (phosphorylation, words) [6]: negligible

Substance: B5 746-762: GST-fusion truncation of integrin β5 tail ending at residue 762 (VTIHDRREFAKFQSERS; also: GST fusion, end not given here; UniProt P18084 746-762, looked up, fragment)
- PAK4 Nterm bound (pull-down quantification) ([1]; replicate 6): 0
- PAK4 Nterm bound (pull-down quantification) ([1]; replicate 7): 0
- PAK4 Cat bound (pull-down quantification) ([2]; replicate column 6 of 7): 0.1712
- PAK4 Cat bound (pull-down quantification) ([2]; replicate column 7 of 7): 0.5556
